Activity calls are given as the source filed them. The rule behind the calls is not given here.
How the values were obtained:
Candida albicans = assay: Antimicrobial activity against Candida albicans at 50 ug/ml after 12 hrs by microbroth dilution method; assay type: functional, organism-based
Escherichia coli = assay: Antimicrobial activity against Escherichia coli at 50 ug/ml after 12 hrs by microbroth dilution method; assay type: functional, organism-based
U-251 [1] = assay: Antiproliferative activities against human U-251 cells by SRB assay; assay type: functional, cell-based
Staphylococcus aureus = assay: Antimicrobial activity against methicillin-resistant Staphylococcus aureus at 50 ug/ml after 12 hrs by microbroth dilution method; assay type: functional, organism-based
U-87 MG [2] = assay: Antiproliferative activities against human U-87 MG cells by SRB assay; assay type: functional, cell-based, U-87MG ATCC
U-251 [3] = assay: Antiproliferative activities against human U-251 cells at 50 uM by SRB assay; assay type: functional, cell-based
U-87 MG [4] = assay: Antiproliferative activities against human U-87 MG cells at 50 uM by SRB assay; assay type: functional, cell-based; settings: u-87mg atcc

| Compound | Activity (Candida albicans) | Activity (Escherichia coli) | IC50 (U-251 [1]) [µM] | Activity (Staphylococcus aureus) | IC50 (U-87 MG [2]) [µM] | IC50 (U-251 [3]) | IC50 (U-87 MG [4]) |
| --- | --- | --- | --- | --- | --- | --- | --- |
| COc1cc(/C=N/OCCc2ccccc2)nc(-c2ccccn2)c1 | inactive | inactive | 2 | inactive | 6.5 | – | – |
| CO[C@@]1(C)N(C[C@@H](O)c2ccccc2)C(=O)c2cc3c4ccccc4n(C)c3c(=O)n21 | inactive | inactive | 36 | inactive | 29 | – | – |
| CCCCCc1[nH]c(=O)c2cnccc2c1C | inactive | inactive | – | inactive | – | Not Active | Not Active |
| CO[C@@]1(C)N(/C=C/c2ccccc2)C(=O)c2cc3c4ccccc4n(C)c3c(=O)n21 | inactive | inactive | 17 | inactive | 4.5 | – | – |
| COc1cccc2c1C(=O)c1c(O)c3c(c(O)c1C2=O)C[C@@](O)(C(=O)CO)C[C@@H]3O[C@H]1C[C@H](N)[C@H](O)[C@H](C)O1 [DOXORUBICIN] | – | – | 3.9 | – | 0.6 | – | – |
| CO[C@@]1(C)N(C[C@H](O)c2ccccc2)C(=O)c2cc3c4ccccc4n(C)c3c(=O)n21 | inactive | inactive | 19 | inactive | 17 | – | – |
| CC(=O)c1nc(C(=O)NC[C@H](O)c2ccccc2)cc2c3ccccc3n(C)c12 | inactive | inactive | – | inactive | – | Not Active | Not Active |
| CO[C@@]1(C)N(/C=C/c2ccccc2)C(=O)c2cc3c([nH]c4ccccc43)c(=O)n21 | inactive | inactive | 36 | inactive | 43 | – | – |
| CO[C@@]1(C)N(/C=C\c2ccccc2)C(=O)c2cc3c4ccccc4n(C)c3c(=O)n21 | inactive | inactive | 12 | inactive | 2.3 | – | – |
| Cn1c2ccccc2c2cc(C(=O)NCCc3ccccc3)[nH]c(=O)c21 | inactive | inactive | 13 | inactive | 11 | – | – |
| Cn1c2ccccc2c2cc3n(c(=O)c21)[C@@](C)(O)N(CCc1ccccc1)C3=O | inactive | inactive | – | inactive | – | Not Active | Not Active |
| O=C(NCCc1ccccc1)c1cc2c([nH]c3ccccc32)c(=O)[nH]1 | inactive | inactive | – | inactive | – | Not Active | Not Active |
| CO[C@@]1(C)N(/C=C\c2ccccc2)C(=O)c2cc3c([nH]c4ccccc43)c(=O)n21 | inactive | inactive | – | inactive | – | Not Active | Not Active |
| CO[C@@]1(C)N(/C=C/c2ccccc2)C(=O)C2=C[C@@]3(C(=O)N(C)c4ccccc43)C(=O)N21 | inactive | inactive | 5.8 | inactive | 7.2 | – | – |
| CC(=O)c1nc(C(=O)NCCc2ccccc2)cc2c3ccccc3n(C)c12 | inactive | inactive | 12 | inactive | 7.4 | – | – |
| CC(=O)NC[C@H](OC(=O)c1cc2c3ccccc3n(C)c2c(=O)[nH]1)c1ccccc1 | inactive | inactive | 15 | inactive | 19 | – | – |
| CC(=O)c1nc(C(=O)NCCc2ccccc2)cc2c1[nH]c1ccccc12 | inactive | inactive | 12 | inactive | 13 | – | – |
| CO[C@@]1(C)N(CCc2ccccc2)C(=O)c2cc3c4ccccc4n(C)c3c(=O)n21 | inactive | inactive | 27 | inactive | 8.9 | – | – |

From ChEMBL document CHEMBL4665777, “Bioactive Alkaloids from the Actinomycete Actinoalloteichus sp. ZZ1866” (J Nat Prod, 2020)
